From patent US20240269139A1, “COMPOUNDS FOR TARGETED PROTEIN DEGRADATION OF KINASES” (DANA-FARBER CANCER INSTITUTE, INC., priority 2020, published 2024)
Like-named read-outs stand apart in the source and are kept apart here.

Columns and labels:
[1] = molecular target: protein kinases (human kinome) (Homo sapiens, UniProt Q9H0K1); format: cell-based; conditions: for logFC of SIK2: Accession Q9H0K1; for logFC SIK2: SIK2 (Q9H0K1), down; for logFC SIK2 (Q9H0K1): direction of change down
[2] = molecular target: protein kinases (human kinome) (Homo sapiens, UniProt P11802); format: cell-based
[3] = molecular target: protein kinases (human kinome) (Homo sapiens, UniProt Q00534); format: cell-based; conditions: for logFC CDK6: CDK6 (Q00534), direction down; for logFC of CDK6 (Q00534): down
[4] = molecular target: protein kinases (human kinome) (Homo sapiens, UniProt Q2M2I8); format: cell-based
[5] = molecular target: protein kinases (human kinome) (Homo sapiens, UniProt P30291); format: cell-based; conditions: for logFC of WEE1: WEE1 P30291-1
[6] = molecular target: T1, protein kinases (human kinome) (Homo sapiens, UniProt O14965); format: cell-based
T1 sequence (O14965 1-403): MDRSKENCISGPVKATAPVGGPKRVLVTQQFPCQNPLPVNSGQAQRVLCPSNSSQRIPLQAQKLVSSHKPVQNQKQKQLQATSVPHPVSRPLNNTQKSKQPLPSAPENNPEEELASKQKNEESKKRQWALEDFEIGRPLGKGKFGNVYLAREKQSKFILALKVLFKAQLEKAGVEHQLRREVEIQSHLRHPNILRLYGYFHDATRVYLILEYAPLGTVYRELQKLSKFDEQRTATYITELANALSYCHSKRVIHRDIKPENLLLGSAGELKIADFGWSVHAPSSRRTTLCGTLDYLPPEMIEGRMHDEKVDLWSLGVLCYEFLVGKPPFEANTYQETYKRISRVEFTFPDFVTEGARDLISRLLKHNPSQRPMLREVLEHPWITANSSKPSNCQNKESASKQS

[7] = molecular target: extended human kinome (kinase-like proteins) (Homo sapiens, UniProt Q16875); assay: Whole cell quantitative proteomics: extended kinome hits; conditions: Accession Q16875
extended human kinome (kinase-like proteins), sequence (Q16875 whole entry): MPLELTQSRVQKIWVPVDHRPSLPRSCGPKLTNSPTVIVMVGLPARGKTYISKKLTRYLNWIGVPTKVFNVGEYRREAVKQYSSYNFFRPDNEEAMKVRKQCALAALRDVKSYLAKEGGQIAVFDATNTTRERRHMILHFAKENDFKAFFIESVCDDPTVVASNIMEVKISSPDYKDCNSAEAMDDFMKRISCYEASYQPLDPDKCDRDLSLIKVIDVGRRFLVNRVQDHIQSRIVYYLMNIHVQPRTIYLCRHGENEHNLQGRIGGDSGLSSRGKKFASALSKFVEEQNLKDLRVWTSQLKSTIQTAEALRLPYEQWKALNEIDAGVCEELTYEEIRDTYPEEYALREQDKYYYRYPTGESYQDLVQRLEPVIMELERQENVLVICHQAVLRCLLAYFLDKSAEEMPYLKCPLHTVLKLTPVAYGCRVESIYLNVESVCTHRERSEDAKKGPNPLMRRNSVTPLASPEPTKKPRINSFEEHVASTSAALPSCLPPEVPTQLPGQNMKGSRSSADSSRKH

protein kinases (human kinome) (Homo sapiens, UniProt Q00534), sequence (Q00534 whole entry): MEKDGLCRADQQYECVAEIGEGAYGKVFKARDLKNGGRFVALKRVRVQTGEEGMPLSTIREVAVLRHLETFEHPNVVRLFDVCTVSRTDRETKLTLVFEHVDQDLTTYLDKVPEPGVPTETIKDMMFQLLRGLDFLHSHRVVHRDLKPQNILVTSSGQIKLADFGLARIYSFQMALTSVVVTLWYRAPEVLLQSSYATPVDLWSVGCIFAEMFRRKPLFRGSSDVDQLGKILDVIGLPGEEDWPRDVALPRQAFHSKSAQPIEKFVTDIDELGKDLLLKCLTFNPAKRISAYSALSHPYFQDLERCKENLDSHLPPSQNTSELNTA
protein kinases (human kinome) (Homo sapiens, UniProt P30291), sequence (P30291 whole entry): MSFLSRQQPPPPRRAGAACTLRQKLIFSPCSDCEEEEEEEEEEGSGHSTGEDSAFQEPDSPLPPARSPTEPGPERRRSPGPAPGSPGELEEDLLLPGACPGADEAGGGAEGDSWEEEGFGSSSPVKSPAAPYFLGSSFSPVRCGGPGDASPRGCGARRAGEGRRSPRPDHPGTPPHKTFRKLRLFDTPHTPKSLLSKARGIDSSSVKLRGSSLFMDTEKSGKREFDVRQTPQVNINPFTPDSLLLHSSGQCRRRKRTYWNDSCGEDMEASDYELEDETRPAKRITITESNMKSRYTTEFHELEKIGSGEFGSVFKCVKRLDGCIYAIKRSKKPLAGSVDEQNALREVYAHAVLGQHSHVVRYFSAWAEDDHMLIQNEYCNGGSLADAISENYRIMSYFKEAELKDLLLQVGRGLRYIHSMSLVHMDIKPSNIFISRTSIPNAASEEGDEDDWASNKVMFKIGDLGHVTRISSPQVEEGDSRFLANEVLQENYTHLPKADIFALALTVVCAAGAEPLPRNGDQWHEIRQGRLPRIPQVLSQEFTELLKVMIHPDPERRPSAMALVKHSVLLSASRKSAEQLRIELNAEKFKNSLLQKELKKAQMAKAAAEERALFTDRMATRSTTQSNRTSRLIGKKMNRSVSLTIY
protein kinases (human kinome) (Homo sapiens, UniProt P11802), sequence (P11802 whole entry): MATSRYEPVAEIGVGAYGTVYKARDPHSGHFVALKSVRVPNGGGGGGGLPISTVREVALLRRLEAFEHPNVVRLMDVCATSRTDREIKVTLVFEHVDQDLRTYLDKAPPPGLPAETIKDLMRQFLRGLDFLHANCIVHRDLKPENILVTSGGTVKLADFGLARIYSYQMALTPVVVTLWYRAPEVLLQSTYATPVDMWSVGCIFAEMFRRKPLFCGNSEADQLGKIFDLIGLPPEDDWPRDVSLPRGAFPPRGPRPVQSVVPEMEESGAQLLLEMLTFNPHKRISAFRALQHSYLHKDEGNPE
protein kinases (human kinome) (Homo sapiens, UniProt Q9H0K1), sequence (Q9H0K1 whole entry): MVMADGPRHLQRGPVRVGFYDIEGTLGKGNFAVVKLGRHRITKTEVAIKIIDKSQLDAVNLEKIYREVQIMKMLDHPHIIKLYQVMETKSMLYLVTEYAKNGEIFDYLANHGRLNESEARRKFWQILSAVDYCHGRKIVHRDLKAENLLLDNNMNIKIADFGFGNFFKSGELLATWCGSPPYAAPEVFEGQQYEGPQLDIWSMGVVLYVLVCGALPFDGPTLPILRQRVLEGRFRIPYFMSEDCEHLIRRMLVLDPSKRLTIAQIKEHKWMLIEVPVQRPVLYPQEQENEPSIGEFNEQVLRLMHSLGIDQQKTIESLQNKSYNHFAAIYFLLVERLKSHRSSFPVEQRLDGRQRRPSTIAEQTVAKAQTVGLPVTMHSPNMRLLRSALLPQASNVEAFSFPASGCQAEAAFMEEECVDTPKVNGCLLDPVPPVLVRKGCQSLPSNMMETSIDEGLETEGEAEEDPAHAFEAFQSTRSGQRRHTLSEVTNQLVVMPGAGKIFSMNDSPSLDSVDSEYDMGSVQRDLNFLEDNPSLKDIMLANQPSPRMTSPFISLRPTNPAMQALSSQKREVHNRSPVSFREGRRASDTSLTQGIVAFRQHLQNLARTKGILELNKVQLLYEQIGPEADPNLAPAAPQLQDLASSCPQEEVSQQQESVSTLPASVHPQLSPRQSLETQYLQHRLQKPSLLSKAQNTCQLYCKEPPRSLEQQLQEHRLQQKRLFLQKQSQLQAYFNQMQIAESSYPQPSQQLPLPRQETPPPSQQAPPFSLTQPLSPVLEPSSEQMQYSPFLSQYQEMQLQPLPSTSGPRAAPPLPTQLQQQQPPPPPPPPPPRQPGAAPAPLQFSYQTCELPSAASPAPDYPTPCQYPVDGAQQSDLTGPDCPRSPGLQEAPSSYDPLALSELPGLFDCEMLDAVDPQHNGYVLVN
protein kinases (human kinome) (Homo sapiens, UniProt Q2M2I8), sequence (Q2M2I8 whole entry): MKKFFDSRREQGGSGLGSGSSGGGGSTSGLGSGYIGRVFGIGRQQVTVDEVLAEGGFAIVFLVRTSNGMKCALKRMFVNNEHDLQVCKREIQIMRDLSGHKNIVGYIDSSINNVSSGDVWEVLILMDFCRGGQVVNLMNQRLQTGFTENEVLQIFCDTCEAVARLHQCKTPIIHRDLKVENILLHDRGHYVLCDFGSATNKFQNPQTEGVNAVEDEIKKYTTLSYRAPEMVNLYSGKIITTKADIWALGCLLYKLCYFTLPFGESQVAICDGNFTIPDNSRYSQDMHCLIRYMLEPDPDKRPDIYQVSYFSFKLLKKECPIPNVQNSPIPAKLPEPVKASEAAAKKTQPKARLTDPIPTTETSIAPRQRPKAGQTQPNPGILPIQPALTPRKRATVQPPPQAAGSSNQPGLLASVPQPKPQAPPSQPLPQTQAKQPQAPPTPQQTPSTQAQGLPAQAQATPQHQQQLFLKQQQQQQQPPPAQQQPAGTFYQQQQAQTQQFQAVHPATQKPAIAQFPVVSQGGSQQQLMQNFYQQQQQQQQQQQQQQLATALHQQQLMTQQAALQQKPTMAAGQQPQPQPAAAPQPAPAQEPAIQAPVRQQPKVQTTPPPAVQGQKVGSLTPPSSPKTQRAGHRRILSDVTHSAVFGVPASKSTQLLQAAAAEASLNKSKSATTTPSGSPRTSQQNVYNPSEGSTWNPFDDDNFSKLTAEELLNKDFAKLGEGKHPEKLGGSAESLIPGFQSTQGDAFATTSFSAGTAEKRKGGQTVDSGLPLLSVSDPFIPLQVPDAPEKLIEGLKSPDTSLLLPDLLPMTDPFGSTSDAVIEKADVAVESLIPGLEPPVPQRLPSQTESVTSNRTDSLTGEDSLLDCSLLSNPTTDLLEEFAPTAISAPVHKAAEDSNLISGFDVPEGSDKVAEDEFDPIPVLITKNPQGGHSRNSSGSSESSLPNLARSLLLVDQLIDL

Structure (SMILES): CS(=O)(=O)Nc1cccc(-c2csc3cnc(Nc4ccc(N5CCN(CCCCCOc6cccc7c6C(=O)N(C6CCC(=O)NC6=O)C7=O)CC5)cc4)nc23)c1 (stereo not shown) [DB0614, N-(3-(2-((4-(4-(5-((2-(2,6-Dioxopiperidin-3-yl)-1,3-dioxoisoindolin-4-yl)oxy)pentyl)piperazin-1-yl)phenyl)amino)thieno[3,2-d]pyrimidin-7-yl)phenyl)methanesulfonamide]
- logFC of SIK2 ([1]; experiment wp045): −0.5292
- logFC of SIK2 ([1]; experiment wp117): −0.3766
- logFC SIK2 ([1]; experiment wp045): −0.5292
- logFC SIK2 (Q9H0K1) ([1]; experiment wp117): −0.3766
- logFC CDK4 (P11802) ([2]; experiment wp045): −1.539
- logFC CDK4 (P11802) ([2]; experiment wp117): −1.539
- logFC CDK6 ([3]; experiment wp045): −2.265
- logFC CDK6 ([3]; experiment wp117): −2.079
- logFC of CDK6 (Q00534) ([3]; Experiment wp045): −2.265
- logFC of CDK6 (Q00534) ([3]; Experiment wp117): −2.079
- logFC AAK1 ([4]; AAK1 (Q2M218-1), experiment wp045, down): −1.863
- logFC AAK1 ([4]; AAK1 (Q2M218-1), experiment wp117, down): −1.652
- logFC AAK1 ([4]; AAK1, accession Q2M218-1, experiment wp045, direction of change down): −1.863
- logFC AAK1 ([4]; AAK1, accession Q2M218-1, experiment wp117, direction of change down): −1.662
- logFC of WEE1 ([5]; experiment wp117): −1.777
- logFC WEE1 (P30291-1) ([5]; experiment wp045): −1.876
- logFC WEE1 (P30291-1) ([5]; experiment wp117): −1.777
- logFC AURKA (O14965) ([6]; experiment wp045): −0.385
- logFC AURKA (O14965) ([6]; experiment wp117): −0.4547

Structure (SMILES): Cc1ccc(NC(=O)c2cccc(C(F)(F)F)c2)cc1N1Cc2cnc(Nc3ccc(N4CCN(CCCOc5cccc6c5C(=O)N(C5CCC(=O)NC5=O)C6=O)CC4)nc3)nc2N(C)C1=O (stereo not shown) [DB0662]
- logFC of SIK2 ([1]; experiment wp168): −0.777
- logFC SIK2 (Q9H0K1) ([1]; experiment wp168): −0.777
- logFC CDK4 (P11802) ([2]; experiment wp168): −0.9883
- logFC PFKFB3 ([7]; experiment wp168): −0.4517

Structure (SMILES): Cc1ccc(NC(=O)c2cccc(C(F)(F)F)c2)cc1N1Cc2cnc(Nc3ccc(N4CCN(Cc5cn(CCCCCOc6cccc7c6C(=O)N(C6CCC(=O)NC6=O)C7=O)nn5)CC4)nc3)nc2N(C)C1=O (stereo not shown) [DB0646, N-(3-(7-((6-(4-((1-(5-((2-(2,6-Dioxopiperidin-3-yl)-1,3-dioxoisoindolin-4-yl)oxy)pentyl)-1H-1,2,3-triazol-4-yl)methyl)piperazin-1-v)pyridin-3-yl)amino)-1-methyl-2-oxo-1,4-dihydropyrimido[4,5-d]pyrimidin-3(2H)-yl)-4-methylphenyl)-3-(trifluoromethyl)benzamide]
- logFC of SIK2 ([1]; experiment wp045): −0.638
- logFC of SIK2 ([1]; experiment wp107): −0.5933
- logFC of SIK2 ([1]; experiment wp114): −0.4347
- logFC of SIK2 ([1]; experiment wp117): −0.4315
- logFC of SIK2 ([1]; experiment wp160, 4 hr): −0.5421
- logFC of SIK2 ([1]; experiment wp160, 8 hr): −0.5707
- logFC SIK2 (Q9H0K1) ([1]; Experiment wp114): −0.4347
- logFC SIK2 ([1]; experiment wp045): −0.638
- logFC SIK2 (Q9H0K1) ([1]; experiment wp107): −0.5933
- logFC SIK2 (Q9H0K1) ([1]; experiment wp117): −0.4315
- logFC SIK2 (Q9H0K1) ([1]; experiment wp160, 4 hr): −0.5421
- logFC SIK2 (Q9H0K1) ([1]; experiment wp160, 8 hr): −0.5707
- logFC CDK4 (P11802) ([2]; experiment wp045): −0.9012
- logFC CDK4 (P11802) ([2]; experiment wp103): −0.5015
- logFC CDK4 (P11802) ([2]; experiment wp107): −0.5565
- logFC CDK4 (P11802) ([2]; experiment wp117): −0.6673
- logFC CDK4 (P11802) ([2]; experiment wp152): −0.736
- logFC CDK4 (P11802) ([2]; experiment wp160, 4 hr): −0.7263
- logFC CDK4 (P11802) ([2]; experiment wp160, 8 hr): −1.114
- logFC of WEE1 ([5]; experiment wp160, 8 hr): −0.352
- logFC WEE1 (P30291-1) ([5]; experiment wp160, 8 hr): −0.352
- logFC AURKA (O14965) ([6]; experiment wp045): −0.3242
- logFC AURKA (O14965) ([6]; experiment wp160, 4 hr): −0.4478
- logFC PFKFB3 ([7]; experiment wp045): −0.5182
- logFC PFKFB3 ([7]; experiment wp160, 8 hr): −0.3754

Structure (SMILES): Cc1ccc(NC(=O)c2cccc(C(F)(F)F)c2)cc1N1Cc2cnc(Nc3ccc(N4CCN(CCCCC(=O)N[C@H](C(=O)N5C[C@H](O)C[C@H]5C(=O)N[C@@H](C)c5ccc(-c6scnc6C)cc5)C(C)(C)C)CC4)nc3)nc2N(C)C1=O [DB1113]
- logFC of SIK2 ([1]; experiment wp168): −0.7296
- logFC SIK2 (Q9H0K1) ([1]; experiment wp168): −0.7296
- logFC CDK4 (P11802) ([2]; experiment wp168): −0.4373
- logFC PFKFB3 ([7]; experiment wp168): −0.3724
